Tested on: 922993-354-T-J3-PDC complex spheroids, viability
Assay: Anticancer human tumor 922993-354-T-J3-PDC patient-derived endometrial carcinoma cell line growth inhibition [GQUAD]
Settings: for IC50: curve of first compound; for viability, T/C: stronger effect = lower value
Description: DNA G-quadruplex Stabilizer Agents in Combinations in Complex Spheroids
A high-throughput screen of multi-cell type tumor spheroids was designed to identify active combinations of DNA G-quadruplex stabilizer agents and targeted small molecules. Complex spheroids include a stromal component modeled by human endothelial cells (HUVEC) and fibroblasts modeled by human mesenchymal stem cells (MSCs). The concentration ranges selected for each drug and investigational agent were based upon clinically achievable concentrations if the clinical Cmax of the agent was known.
Compounds. The drugs and investigational agents: pidnarulex (CX-5461; NSC782164), APTO-253 (NSC789042), BRACO-19 (NSC847499), peposertib (NSC802822), ceralasertib (NSC780249), elimusertib (NSC800525), camonsertib (NSC841442), AZD-1390 (NSC803789), olaparib (NSC753686), talazoparib (NSC767125), ART-558 (NSC835418), sotorasib (NSC818433), MRTX-1133 (NSC836407), SN-38 (NSC673596), topotecan (NSC609699), etoposide (NSC141540), doxorubicin (NSC123127), gemcitabine (NSC613327), 5-fluorouracil (NSC19893), paclitaxel (NSC125973), vemurafenib (NSC761431), panobinostat (NSC761190), R-306465 (JNJ-16241199; NSC773264), adavosertib (NSC754352), TP-3654 (NSC805149), carboplatin (NSC241240), KSQ-4279 (NSC840948), and staurosporine (NSC755774) were obtained from the National Cancer Institute (NCI) Developmental Therapeutics Program Chemical Repository (34). The FDA-approved anticancer drug set is available from the NCI Developmental Therapeutics Program. […] The stock solutions were prepared in dimethyl sulfoxide (DMSO, Sigma-Aldrich, St. Louis, MO, cat. D2650) at 800-fold the tested concentration and stored at -70 degrees C prior to their use. All drugs and investigational agents were tested over a range starting from a high concentration at or near the clinical Cmax and decreasing in half-log increments. If the clinical Cmax for an agent had not been determined, the highest concentration tested was 10 microM.
2.3 Cell Culture. All cells were maintained in an incubator at 37 degrees C and 5% CO2 with 95% humidity. The PDC lines were cultured according to standard operating procedures established by the NCI PDMR. All PDCs were thawed and cultured in Matrigel-coated flasks prepared with a working solution of 1X Ham's F-12 nutrient mix, without supplementation (Invitrogen, cat. 11765054), 100 U/mL penicillin-streptomycin (Invitrogen, cat. 15140122), and 2.5% Matrigel (Corning Inc., cat. 354248) for the first three passages. The 857933-349-R-J2-PDC line was cultured in 6C/Colon 1B media, which includes advanced DMEM/F-12 (Thermo Fisher Scientific, cat. 12634028), 10 mM HEPES (Thermo Fisher Scientific, cat. 15630080), 1X GlutaMAX supplement (Thermo Fisher Scientific, cat. 35050061), 0.1 mg/mL primocin (InvivoGen, cat. ant-pm-2), 10% defined fetal bovine serum, heat inactivated (HyClone Laboratories Inc., cat. SH30070.03HI), 50% L-WRN conditioned media (ATCC, cat. CRL-3276), 1.25 mM N-Acetyl-L-cysteine (Sigma-Aldrich, cat. A9165), 10 mM nicotinamide (Sigma-Aldrich, cat. N0636), 1X B-27 supplement (Thermo Fisher Scientific, cat. 17504044), 1X N-2 supplement (Thermo Fisher Scientific, cat. 17502048), 10 microM Y-27632 dihydrochloride (Tocris Bioscience, cat. 1254), and 50 ng/mL human EGF recombinant protein (Thermo Fisher Scientific, cat. PHG0311). The 485176-168-R4-J1-PDC line was cultured in Panc media, which includes all 6C/Colon 1B media components plus 100 ng/mL human FGF-10 (Thermo Fisher Scientific, cat. 100-26), 500 nM SB-431542 (Selleckchem, cat. S1067), and gastrin (Tocris, cat. 3006).
[…]
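Also: spheroids exposed to compounds for seven days.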
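For viability, T/C in this document: 100% = DMSO vehicle control viability.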

## O=C(c1cc(Cc2n[nH]c(=O)c3ccccc23)ccc1F)N1CCN(C(=O)C2CC2)CC1 + Cc1[nH]c2ccc(F)cc2c1-c1nc2c3cccnc3c3ncccc3c2[nH]1
Second compound 0.0316 µM
  IC50: > 10 µM
Second compound 0.1 µM
  IC50: > 10 µM
Second compound 0.316 µM
  IC50: > 10 µM
Second compound 1 µM
  IC50: > 10 µM
Second compound 3.16 µM
  IC50: > 10 µM
Second compound 10 µM
  IC50: > 10 µM
Second compound 0.0316 µM, first compound 0.0316 µM
  viability, T/C: 107%
Second compound 0.0316 µM, first compound 0.1 µM
  viability, T/C: 113%
Second compound 0.0316 µM, first compound 0.316 µM
  viability, T/C: 98.3%
Second compound 0.0316 µM, first compound 1 µM
  viability, T/C: 102%
Second compound 0.0316 µM, first compound 3.16 µM
  viability, T/C: 89.5%
Second compound 0.0316 µM, first compound 10 µM
  viability, T/C: 81.1%
Second compound 0.1 µM, first compound 0.0316 µM
  viability, T/C: 108%
Second compound 0.1 µM, first compound 0.1 µM
  viability, T/C: 119%
Second compound 0.1 µM, first compound 0.316 µM
  viability, T/C: 88.3%
Second compound 0.1 µM, first compound 1 µM
  viability, T/C: 99.5%
Second compound 0.1 µM, first compound 3.16 µM
  viability, T/C: 124%
Second compound 0.1 µM, first compound 10 µM
  viability, T/C: 95.5%
Second compound 0.316 µM, first compound 0.0316 µM
  viability, T/C: 93%
Second compound 0.316 µM, first compound 0.1 µM
  viability, T/C: 90%
Second compound 0.316 µM, first compound 0.316 µM
  viability, T/C: 72.6%
Second compound 0.316 µM, first compound 1 µM
  viability, T/C: 115%
Second compound 0.316 µM, first compound 3.16 µM
  viability, T/C: 102%
Second compound 0.316 µM, first compound 10 µM
  viability, T/C: 118%
Second compound 1 µM, first compound 0.0316 µM
  viability, T/C: 91.5%
Second compound 1 µM, first compound 0.1 µM
  viability, T/C: 100%
Second compound 1 µM, first compound 0.316 µM
  viability, T/C: 108%
Second compound 1 µM, first compound 1 µM
  viability, T/C: 92.3%
Second compound 1 µM, first compound 3.16 µM
  viability, T/C: 92%
Second compound 1 µM, first compound 10 µM
  viability, T/C: 68.3%
Second compound 3.16 µM, first compound 0.0316 µM
  viability, T/C: 81.1%
Second compound 3.16 µM, first compound 0.1 µM
  viability, T/C: 98.3%
Second compound 3.16 µM, first compound 0.316 µM
  viability, T/C: 89.7%
Second compound 3.16 µM, first compound 1 µM
  viability, T/C: 88.1%
Second compound 3.16 µM, first compound 3.16 µM
  viability, T/C: 97.9%
Second compound 3.16 µM, first compound 10 µM
  viability, T/C: 88.8%
Second compound 10 µM, first compound 0.0316 µM
  viability, T/C: 106%
Second compound 10 µM, first compound 0.1 µM
  viability, T/C: 110%
Second compound 10 µM, first compound 0.316 µM
  viability, T/C: 88.2%
Second compound 10 µM, first compound 1 µM
  viability, T/C: 80.2%
Second compound 10 µM, first compound 3.16 µM
  viability, T/C: 101%
Second compound 10 µM, first compound 10 µM
  viability, T/C: 83.7%
